Values quoted from earlier work, collected in paper PMC4621754, “Parasitic diarrheal disease: drug development and targets” (Frontiers in Microbiology, 2015).
Read-outs that look alike come from different tables or passages of the source.

Assays:
[1] = test system: E. histolytica PPi-PFK; parameters: method as in Reeves et al., 1974, 1976; conditions: ref Reeves et al., 1974, 1976
[2] = test system: E. histolytica
[3] = test system: G. lamblia
[4] = test system: tubulin; parameters: method as in Valdez et al., 2002; conditions: ref Valdez et al., 2002
[5] = test system: G. intestinalis
[6] = test system: Encephalitozoon spp. and E. bieneusi; parameters: method as in Bacchi and Weiss, 2004; conditions: in vitro; ref Bacchi and Weiss, 2004
[7] = test system: methionine aminopeptidase type 2(MetAP2); parameters: method as in Molina et al., 2002; conditions: E. cuniculi; non-competitive, irreversible; ref Molina et al., 2002
[8] = test system: B. hominis; parameters: method as in Nasirudeen et al., 2004; conditions: ref Nasirudeen et al., 2004
[9] = test system: I. belli; conditions: for cure of I. belli induced diarrhea: ref Trier et al., 1974, Syrkis et al., 1975, Butler and De Boer, 1981, Weiss et al.; for cure of diarrheal disease caused by I. belli: Ebrahimzadeh and Bottone, 1996
[10] = test system: human cells; conditions: ref Bendesky et al., 2002
[11] = test system: B. hominis; parameters: method as in Van Hellemond et al., 2013; conditions: in comparison to metronidazole; ref Van Hellemond et al., 2013
[12] = test system: E. intestinalis; parameters: method as in Menotti et al., 2005; Pozio and Morales, 2005; conditions: tissue culture, ref Menotti et al., 2005, Pozio and Morales
[13] = test system: E. intestinalis; parameters: method as in Didier et al., 2006; conditions: in vitro; ref Didier et al., 2006
[14] = test system: Carbamate kinase; parameters: method as in Galkin et al., 2014; conditions: ref Galkin et al., 2014
[15] = test system: giardiasis; parameters: method as in Galkin et al., 2014; conditions: mice; ref Galkin et al., 2014
[16] = test system: cryptosporidiosis; parameters: method as in Mead, 2002; Gargala, 2008; conditions: ref Mead, 2002, Gargala, 2008
[17] = parameters: method as in Diaz et al., 2003; conditions: intestinal infection caused by C. cayetanensis; ref Diaz et al., 2003
[18] = test system: microsporidia; parameters: method as in Didier et al., 2005; conditions: ref Didier et al., 2005
[19] = test system: E. intestinalis; conditions: ref John et al., 2005
[20] = test system: Acyl-coenzyme-A synthetases; parameters: method as in Guo et al., 2014; conditions: cryptosporidial infection in mice; ref Guo et al., 2014
[21] = ref Navarrete-Vazquez et al., 2003
[22] = in vitro, ref Hernández-Nunez et al., 2009

For `O=P(O)(O)C(O)(Cn1ccnc1)P(=O)(O)O` [CGP42446A], the “inhibition of PFK in E. histolytica” value [1] is given as “good inhibitors”.

In the case of `S=c1[nH]c2ccc(Cl)cc2[nH]1` [Compound 36, 5(6)-chloro-1H-benzimidazole-2-(3H)-thione], the IC50 ([2]; ref Valdez et al., 2002) is listed as 5 nM, the IC50 ([3]; in vitro, ref Valdez et al., 2002) is listed as 5 nM and the tubulin polymerization [4] is listed as “inhibits tubulin polymerization”.

For `CC(=O)Oc1ccccc1C(=O)Nc1nc2ccc([N+](=O)[O-])cc2s1` [Compound 39, 2-{[(6-Nitro-1,3-benzothiazol-2-yl)amino]carbonyl}phenyl acetate], the IC50 ([2]; ref Navarrete-Vazquez et al., 2011) is given as 297 nM and the IC50 ([5]; in vitro, ref Navarrete-Vazquez et al., 2011) is given as 3520 nM.

For `COc1ccc(Nc2c(C#N)cnc3sccc23)cc1` [Compound 58, 4-(4-methoxyphenylamino)thieno[2,3-b]pyridine-5-carbonitrile], the giardicidal effect ([3]; ref Bernardino et al., 2006) is listed as “excellent giardicidal effect”.

In the case of `COc1cc(-c2nc3cc(C)ccc3[nH]2)ccc1OCCCCCOc1ccc(-c2nc3cc(C)ccc3[nH]2)cc1OC` [Compound 59, 1,5-bis[2-methoxy-4-(5-methyl-1H-benzimidazole-2-yl)phenoxy] pentane], the IC50 ([3]; in vitro, ref Torres-Gomez et al., 2008b) is listed as 372 nM, the IC50 ([3]; ref Torres-Gomez et al., 2008a) is listed as 372 nM and the “folds more potent than metronidazole” value ([3]; ref Torres-Gomez et al., 2008a) is listed as 3 folds. The “folds more potent than pentamidine” value ([3]; ref Torres-Gomez et al., 2008a) was 9 folds, the “fold more activity than metronidazole” value ([3]; ref Torres-Gomez et al., 2008b) was 3 fold and the “fold more activity than pentamidine” value ([3]; ref Torres-Gomez et al., 2008b) was 9 fold.

For `Cn1c(C(F)(F)F)nc2cc(Cl)ccc21` [Compound 60, 5-chloro-1-methyl-2-(trifluoromethyl)benzimidazole], the IC50 ([3]; in vitro, ref Gabriel Navarrete-Vaa Zquez et al., 2001) is given as 42 nM.

In the case of `COc1ccc(C(=O)/C=C/c2ccccc2F)cc1` [Compound 61, (E)-3-(6-flourophenyl)-1-(4-methoxyphenyl)prop-2-en 1-one], the IC50 ([3]; ref Montes-Avila et al., 2009) is given as 12700 nM.

For `CCCSc1ccc2nc(C(F)(F)F)n(C)c2c1` [Compound 63, 1-methyl-6-(propylthio)-2-(trifluoromethyl)-1H-benzimidazole], the IC50 [3, 21] is listed as 1400 nM.

For `CCCSc1ccc2[nH]c(C(F)(F)F)nc2c1` [Compound 64, 5(6)-(propylthio) -2-(trifluoromethyl)-1H-benzimidazole], the IC50 [3, 21] is listed as 1520 nM.

In the case of `Cn1c(C(F)(F)F)nc2cc(C(=O)c3ccccc3)ccc21` [Compound 65, 5-benzoyl-1-methyl-2-(trifluoromethyl)-1H-benzimidazole], the IC50 [3, 21] is given as 1100 nM.

In the case of `Cn1c(C(F)(F)F)nc2ccc(C(=O)c3ccccc3)cc21` [Compound 66, 6-benzoyl-1-methyl-2-(trifluoromethyl)-1H-benzimidazole], the IC50 [3, 21] is given as 1280 nM.

For `COc1cc(NC(c2coc3ccccc3c2=O)c2nnnn2C2CCCCC2)cc(OC)c1OC` (stereo not drawn) [Compound 67, 3-((1-cyclohexyl-1H-tetrazol-5-yl)((3,4,5-trimethoxyphenyl)amino)methyl)-4H-chromen-4-one], the IC50 ([3]; ref Cano et al., 2014) is listed as 171000 nM.

In the case of `COC(=O)Nc1ncc([N+](=O)[O-])s1` [Compound 68, methyl 5-nitro-1,3-thiazol-2-ylcarbamate], the IC50 ([5]; ref Nava-Zuazo et al., 2014) is given as 10 nM.

For `CCOC(=O)C(=O)Nc1ncc([N+](=O)[O-])s1` [Compound 69, ethyl [(5-nitro-1,3-thiazol-2-yl)amino](oxo)acetate], the IC50 ([5]; ref Nava-Zuazo et al., 2014) is listed as 6410 nM.

For `Cc1nc([N+](=O)[O-])cn1CC(=O)Nc1ccc(C#N)cc1` [Compound 72, N-(4-cyanophenyl)-2-(2-methyl-4-nitro-1H-imidazol-1-yl) acetamide], the IC50 [3, 22] is given as 11200 nM.

For `Cc1nc([N+](=O)[O-])cn1S(=O)(=O)c1ccc([N+](=O)[O-])cc1` [Compound 73, 2-methyl-4-nitro-1-[(4-nitrophenyl)sulfonyl]-1H-imidazole], the IC50 [3, 22] is listed as 7500 nM.

For `CO[C@@H]1[C@H](OC(=O)/C=C/C=C/C=C/C=C/C(=O)O)CC[C@]2(CO2)[C@H]1[C@@]1(C)O[C@@H]1CC=C(C)C` [Fumagillin], the “activity against Encephalitozoon spp. and E. bieneusi” value [6] is listed as “potent” and the MetAP2 inhibition [7] is listed as “potent inhibitor”.

In the case of `Cc1ncc([N+](=O)[O-])n1CCO` [Metronidazole], the programmed cell death [8] is listed as “induces programmed cell death”, the “cure of I. belli induced diarrhea” value [9]; 1988 is listed as “cure the I. belli induced diarrhea but to lesser extent” and the genotoxicity [10] is listed as “genotoxic”.

In the case of `NC[C@@H]1O[C@H](O[C@H]2[C@@H](O)[C@H](O[C@@H]3[C@@H](O)[C@H](N)C[C@H](N)[C@H]3O[C@H]3O[C@H](CO)[C@@H](O)[C@H](O)[C@H]3N)O[C@@H]2CO)[C@H](N)[C@@H](O)[C@@H]1O` [Paramomycin, paromomycin], the “performance against B. hominis infections” value [11] is given as “superior performance in comparison to metronidazole”.

For `CC(C)c1nc(CN(C)C(=O)N[C@H](C(=O)N[C@@H](Cc2ccccc2)C[C@H](O)[C@H](Cc2ccccc2)NC(=O)OCc2cncs2)C(C)C)cs1` [Ritonavir], the “growth of E. intestinalis” value [12] is listed as “inhibited the growth”.

For `CO[C@@H]1[C@H](OC(=O)NC(=O)CCl)CC[C@]2(CO2)[C@H]1[C@@]1(C)O[C@@H]1CC=C(C)C` [TNP-470], the “inhibition of E. intestinalis replication” value [13] is given as “more than 70%”.

For `CCN(CC)C(=S)SSC(=S)N(CC)CC` [disulfiram], the effect on trophozoites ([3]; ref Galkin et al., 2014) is given as “kills the trophozoites”, the carbamate kinase inhibition [14] is given as “inhibits this enzyme” and the cure of giardiasis [15] is given as “cure of giardiasis in mice”.

For `O=C1OCCN1/N=C/c1ccc([N+](=O)[O-])o1` [furazolidone, Furazolidone], the “cure of I. belli induced diarrhea” value [9]; 1988 is given as “cure the I. belli induced diarrhea but to lesser extent”.

In the case of `CC(C)(C)NC(=O)[C@@H]1CN(Cc2cccnc2)CCN1C[C@@H](O)C[C@@H](Cc1ccccc1)C(=O)N[C@H]1c2ccccc2C[C@H]1O` [indinavir], the “growth of E. intestinalis” value [12] is given as “inhibited the growth”.

For `CC(=O)Oc1ccccc1C(=O)Nc1ncc([N+](=O)[O-])s1` [nitazoxanide], the efficacy in cryptosporidiosis ([16]; immunocompetent patients) is given as “effective”, the efficacy in cryptosporidiosis ([16]; immunocompromised patients) is given as “ineffective” and the side effects [17] is given as “no severe side effects”.

In the case of `CCn1cc(C(=O)O)c(=O)c2cc(F)c(N3CCNCC3)cc21` [norfloxacin], the antimicrosporidial activity [18] is given as “more than gatifloxacin (6), lomefloxacin (7), moxifloxacin (8), and nalidixic acid (9)”.

In the case of `CC1COc2c(N3CCN(C)CC3)c(F)cc3c(=O)c(C(=O)O)cn1c23` (stereo not drawn) [ofloxacin], the antimicrosporidial activity [18] is listed as “more than gatifloxacin (6), lomefloxacin (7), moxifloxacin (8), and nalidixic acid (9)”.

For `CO[C@@H]1C(=O)CC[C@]2(CO2)[C@@]1(O)[C@@]1(C)O[C@@H]1CC=C(C)C` [ovalicin], the “inhibition of E. intestinalis replication” value [13] is given as “more than 70%”.

For `O=[O+][O-]` [ozone], the “killing of E. intestinalis” value [19] is given as “kills”.

In the case of `CCc1nc(N)nc(N)c1-c1ccc(Cl)cc1` [pyrimethamine], the “cure of diarrheal disease caused by I. belli” value ([9]; ref Ferguson et al., 1980) is listed as “cure the diarrheal disease”.

For `CCN(CC)CCCC(C)Nc1c2ccc(Cl)cc2nc2ccc(OC)cc12` (stereo not drawn) [quinacrine], the “cure of I. belli induced diarrhea” value [9]; 1988 is given as “cure the I. belli induced diarrhea but to lesser extent”.

For `CC[C@H]1OC(=O)[C@H](C)[C@@H](O[C@H]2C[C@@](C)(OC)[C@@H](O)[C@H](C)O2)[C@H](C)[C@@H](O[C@@H]2O[C@H](C)C[C@H](N(C)C)[C@H]2O)[C@](C)(O)C[C@@H](C)/C(=N\OCOCCOC)[C@H](C)[C@@H](O)[C@]1(C)O` [roxithromycin], the “efficacy in chronic I. belli induced diarrhea” value ([9]; when TMP-SMX or pyrimethamine treatments become inadequate, ref Musey et al., 1988) is listed as “effective”.

In the case of `Nc1ccc(S(=O)(=O)Nc2ncccn2)cc1` [sulfadiazine], the “cure of diarrheal disease caused by I. belli” value ([9]; ref Ferguson et al., 1980) is given as “cure the diarrheal disease”.

For `CCS(=O)(=O)CCn1c([N+](=O)[O-])cnc1C` [tinidazole], the “cure of I. belli induced diarrhea” value [9]; 1988 is given as “cure the I. belli induced diarrhea but to lesser extent”.

For `CCC/C=C/C/C=C/C=C/C=N/NN=O` [triacsin C], the “inhibition of acyl-coenzyme-A synthetases” value [20] is listed as “inhibited”.

For sirimamycin, the “efficacy in I. belli intestinal infection” value ([9]; when pyrimethamine-sulfadoxine fails, AIDS patients, ref Ferguson et al., 1980) is listed as “effective”.
